For nine compounds, EC50 results are on record in patent US11708348B2, “Protease inhibitors for treatment of coronavirus infections” (The Scripps Research Institute, priority 2021, dated 2023).

The EC50 is the midpoint of the concentration-response curve.

This test has as its system SARS-CoV-2 strain USA-WA1/2020. In words: microbe, parasite or virus in culture. It is filed as cell-based. The following applies: Severe acute respiratory syndrome coronavirus 2, HeLa-ACE2, 24 h, HeLa-ACE2 cells, SARS-CoV-2 infection, 24 h; class symbols; read-out: EC50, uM (Hela).
With `Cc1ccccc1NC(=O)C(=O)N[C@@H](Cc1ccccc1)C(=O)N[C@@H](C[C@@H]1CCNC1=O)C(=O)COc1c(F)c(F)cc(F)c1F` [Compound 106, N1-((S)-1-oxo-1-(((S)-3-oxo-1-((S)-2-oxopyrrolidin-3-yl)-4-(2,3,5,6-tetrafluorophenoxy)butan-2-yl)amino)-3-phenylpropan-2-yl)-N2-(o-tolyl)oxalamide], the EC50 was below 0.05 µM.
As for `Cc1ccccc1N(C)C(=O)C(=O)N[C@@H](CC(C)C)C(=O)N[C@@H](C[C@@H]1CCNC1=O)C(=O)COc1c(F)c(F)cc(F)c1F` [Compound 107, N1-methyl-N2-((S)-4-methyl-1-oxo-1-(((S)-3-oxo-1-((S)-2-oxopyrrolidin-3-yl)-4-(2,3,5,6-tetrafluorophenoxy)butan-2-yl)amino)pentan-2-yl)-N1-(o-tolyl)oxalamide], the EC50 is 0.2 to 0.5 µM.
Next, `O=C(Nc1ccccc1F)C(=O)N[C@@H](CCC1CCCCC1)C(=O)N[C@@H](C[C@@H]1CCNC1=O)C(=O)COc1c(F)c(F)cc(F)c1F` [Compound 108, N1-((S)-4-cyclohexyl-1-oxo-1-(((S)-3-oxo-1-((S)-2-oxopyrrolidin-3-yl)-4-(2,3,5,6-tetrafluorophenoxy)butan-2-yl)amino)butan-2-yl)-N2-(2-fluorophenyl)oxalamide]: 0.2 to 0.5 µM; `O=C(Nc1ccccc1F)C(=O)N[C@@H](CC1CC1)C(=O)N[C@@H](C[C@@H]1CCNC1=O)C(=O)COc1c(F)c(F)cc(F)c1F` [Compound 109, N1-((S)-3-cyclopropyl-1-oxo-1-(((S)-3-oxo-1-((S)-2-oxopyrrolidin-3-yl)-4-(2,3,5,6-tetrafluorophenoxy)butan-2-yl)amino)propan-2-yl)-N2-(2-fluorophenyl)oxalamide]: below 0.05 µM.
To `O=C(N[C@@H](CC1CCCCC1)C(=O)N[C@@H](C[C@@H]1CCNC1=O)C(=O)COc1c(F)c(F)cc(F)c1F)c1cc(-c2ccccc2F)on1` [Compound 110, N-((S)-3-cyclohexyl-1-oxo-1-(((S)-3-oxo-l-((S)-2-oxopyrrolidin-3-yl)-4-(2,3,5,6-tetrafluorophenoxy)butan-2-yl)amino)propan-2-yl)-5-(2-fluorophenyl)isoxazole-3-carboxamide] belongs 0.2 to 0.5 µM.
To `O=C(Nc1ccccc1Cc1ccccc1)C(=O)N[C@@H](CC1CCCCC1)C(=O)N[C@@H](C[C@@H]1CCNC1=O)C(=O)COc1c(F)c(F)cc(F)c1F` [Compound 111, N1-(2-benzylphenyl)-N2-((S)-3-cyclohexyl-1-oxo-1-(((S)-3-oxo-1-((S)-2-oxopyrrolidin-3-yl)-4-(2,3,5,6-tetrafluorophenoxy)butan-2-yl)amino)propan-2-yl)oxalamide] belongs 0.05 to 0.2 µM.
With `COc1ccccc1NC(=O)C(=O)N[C@@H](CC(C)C)C(=O)N[C@@H](C[C@@H]1CCNC1=O)C(=O)COc1c(F)c(F)cc(F)c1F` [Compound 112, N1-(2-methoxyphenyl)-N2-((S)-4-methyl-1-oxo-1-(((S)-3-oxo-1-((S)-2-oxopyrrolidin-3-yl)-4-(2,3,5,6-tetrafluorophenoxy)butan-2-yl)amino)pentan-2-yl)oxalamide], the half-maximal effective concentration (EC50) lay in the range of 0.05 to 0.2 µM.
To `CC(C)C[C@H](NC(=O)C(=O)Nc1ccccc1OC(F)(F)F)C(=O)N[C@@H](C[C@@H]1CCNC1=O)C(=O)COc1c(F)c(F)cc(F)c1F` [Compound 113, N1-((S)-4-methyl-1-oxo-1-(((S)-3-oxo-1-((S)-2-oxopyrrolidin-3-yl)-4-(2,3,5,6-tetrafluorophenoxy)butan-2-yl)amino)pentan-2-yl)-N2-(2-(trifluoromethoxy)-phenyl)oxalamide] belongs below 0.05 µM; to `Cc1cc(C(=O)N[C@@H](CC(C)C)C(=O)N[C@@H](C[C@@H]2CCNC2=O)C(=O)COc2c(F)c(F)cc(F)c2F)no1` [Compound 114, 5-methyl-N-((S)-4-methyl-1-oxo-1-(((S)-3-oxo-1-((S)-2-oxopyrrolidin-3-yl)-4-(2,3,5,6-tetrafluorophenoxy)butan-2-yl)amino)pentan-2-yl)isoxazole-3-carboxamide], 0.5 to 1 µM.
